Earlier results, collected in US6183121A, “Hepatitis C virus helicase crystals and coordinates that define helicase binding pockets” (priority 1998, dated 2001).

Biological target: UvrD helicase, mutation of a conserved arginine in motif IV (Escherichia coli, UniProt P03018, R284A)
Conditions: mutant versus unmutated UvrD; M. C. Hall et al., J. Biol. Chem., 272 (1997)

Chain of UvrD helicase, mutation of a conserved arginine in motif IV (P03018 whole entry R284A): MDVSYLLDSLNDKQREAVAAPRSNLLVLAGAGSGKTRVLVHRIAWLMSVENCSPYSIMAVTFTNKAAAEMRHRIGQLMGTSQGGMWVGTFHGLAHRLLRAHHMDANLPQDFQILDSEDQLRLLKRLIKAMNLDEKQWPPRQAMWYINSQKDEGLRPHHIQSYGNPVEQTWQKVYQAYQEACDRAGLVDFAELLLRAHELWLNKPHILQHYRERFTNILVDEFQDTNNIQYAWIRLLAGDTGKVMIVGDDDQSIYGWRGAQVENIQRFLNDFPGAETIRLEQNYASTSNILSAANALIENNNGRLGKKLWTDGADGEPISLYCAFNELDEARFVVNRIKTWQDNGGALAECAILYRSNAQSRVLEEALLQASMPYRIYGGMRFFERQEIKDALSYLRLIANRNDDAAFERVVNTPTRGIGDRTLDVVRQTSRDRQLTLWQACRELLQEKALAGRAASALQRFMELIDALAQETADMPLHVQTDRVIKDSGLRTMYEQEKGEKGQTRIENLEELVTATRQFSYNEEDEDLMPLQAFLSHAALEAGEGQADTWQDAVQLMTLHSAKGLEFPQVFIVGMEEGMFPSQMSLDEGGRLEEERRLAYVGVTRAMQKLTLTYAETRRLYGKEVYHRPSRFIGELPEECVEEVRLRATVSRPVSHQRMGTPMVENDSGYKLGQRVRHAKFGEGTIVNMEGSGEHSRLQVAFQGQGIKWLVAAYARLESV

Q: Which “increase of the ATP Km” value does the source give for Nc1ncnc2c1ncn2[C@@H]1O[C@H](COP(=O)(O)OP(=O)(O)OP(=O)(O)O)[C@@H](O)[C@H]1O [ATP] here?
A: 37 fold
